Data from patent publication US20090062223A1, “AMINO TRICYCLIC-NUCLEOSIDE COMPOUNDS, COMPOSITIONS, AND METHODS OF USE” (GENELABS TECHNOLOGIES, INC., priority 2007, published 2009).
Values after ≈ are worked out from the molar mass of the structure shown.

Tests used:
[1] = Chemical stability in acidic solution (acid stability); format: physicochemical; conditions: pH 4.5 chemical solution; pH 4.5, 37° C.; read-out: Acid Stability (T ½, mins @ pH 4.5)
Caco-2 cells = assay: in vitro; format: in vitro ADME
Procedure: (§1) Caco-2 cells were maintained in Dulbecco's Modification of Eagle's Medium (DMEM) with sodium pyruvate, Glutmax supplemented with 1% Pen/Strep, 1% NEAA and 10% fetal bovine serum in an incubator set at 37° C., 90% humidity and 5% CO2. Caco-2 cells between passage 43 and 61 were grown to confluence over at least 21-days on 24 well PET (polyethylene-terephthalate) plates (BD Biosciences). Experiments were run using a new HBSS donor buffer from Invitrogen containing additional 10 mM HEPES, 15 mM Glucose with pH adjusted to pH 6.5. The receiver well used HBSS buffer supplemented with 1% BSA and the pH adjusted to pH 7.4. After an initial equilibration with transport buffer, TEER values were read to test membrane integrity. The experiment was started by the addition of buffers containing test compounds and 100 μl of solution is taken at 1 and 2 hrs from the receiver compartment. Removed buffer was replaced with fresh buffer and a correction was applied to all calculations for the removed material. Each compound was tested in 2 separate replicate wells for each condition. All samples were immediately collected into 400 μl 100% acetonitrile acid to precipitate protein and stabilize test compounds. Cells were dosed on the apical or basolateral side to determine forward (A to B) and reverse (B to A) permeability. Permeability through a cell free trans-well was also determined as a measure of cellular permeability through the membrane and non-specific binding. To test for non-specific binding and compound instability the total amount of drug was quantitated at the end of the experiment and compared to the material present in the original dosing solution as a percent recovery. Samples were analyzed by LC/MS/MS.
(§2) The apparent permeability, Papp, and % recovery were calculated as follows: […]
(§3) where, • dR/dt is the slope of the cumulative concentration in the receiver compartment versus time in μM/s based on receiver concentrations measured at 60 and 120 minute. • Vr and Vd is the volume in the receiver and donor compartment in cm^3, respectively. • A is the area of the cell monolayer (0.33 cm^2). • D0 and D120 is the measured donor concentration at the beginning and end of the experiment, respectively. • R120 is the receiver concentration at the end of the experiment (120 minutes).
(§4) The apparent permeability for certain compounds were determined using the above procedure.

[2] = Solubility (shaking flask); format: physicochemical; conditions: phosphate buffer solution (PBS), aqueous buffer, thermodynamic from solid; PBS; 37° C. for 24 hours
Procedure: The solubility for certain compounds were determined using the following protocol and procedure. 1) The solution, sterile water or phosphate buffer solution (PBS), was added to the test compound tube to make the final concentration 10 mg/mL. 2) The sample tube was vortexed and incubated at 37° C. for 24 hours. During the incubation period, the sample tube was vortexed several times. 3) After the incubation, vortex the tube and centrifuge the tube at 13,000 rpm for 10 mins using an Eppendorf Centrifuge Model 5415C. If the solution was still cloudy, centrifuge it for longer until a clear supernatant was achieved. 4) The supernatant was diluted to 1×, 10× and 100× in 50% ACN in water. 5) A six point standard curve was prepared separately to make the final concentrations of 1 μg/mL, 5 μg/mL, 10 μg/mL, 20 μg/mL, 40 μg/mL and 60 μg/mL. 6) Samples were quantified using an HPLC with UV detector. 7) From the three concentrations of 1×, 10× and 100× supernatant, choose the value, which was fallen into the standard curve range (1 ug/mL-60 ug/mL), as the final result. If all the results were out of the curve range, adjust using a dilution factor to make the value within the curve range.

in vitro = in vitro ADME; conditions: human, Caco-2
Procedure: as §1, §2, §3, §4

Row | SMILES | half-life at 1 µg/mL [1] | Permeability Papp (A to B) × 10^−6 cm/s (Caco-2 A-B) (Caco-2 cells) | solubility at 24 h [2] | Papp A→B at 2 h (in vitro)
1 | CCCCCC(=O)OC[C@H]1O[C@@H](n2cc3c4c(ncnc42)NC(=O)C=C3N)[C@@](C)(O)[C@@H]1O (stereo in doubt) [Compound 101, Hexanoic acid 5-(9-amino-7-oxo-6,7-dihydro-2,3,5,6-tetraaza-benzo[cd]azulen-2-yl)-3,4-dihydroxy-4-methyl-tetrahydro-furan-2-ylmethylester] | < 30 min | high | 137 µg/mL (≈ 308 µM) | –
2 | CCCCCOC(=O)OC[C@H]1O[C@@H](n2cc3c4c(ncnc42)NC(=O)C=C3N)[C@@](C)(O)[C@@H]1O (stereo in doubt) [Compound 103, Carbonic acid 5-(9-amino-7-oxo-6,7-dihydro-2,3,5,6-tetraaza-benzo[cd]azulen-2-yl)-3,4-dihydroxy-4-methyl-tetrahydro-furan-2-ylmethylester pentyl ester] | ≤ 30 min | low | – | –
3 | CC(C)C(=O)OC[C@H]1O[C@@H](n2cc3c4c(ncnc42)NC(=O)C=C3N)[C@@](C)(O)[C@@H]1O (stereo in doubt) [Compound 105, Isobutyric acid 5-(9-amino-7-oxo-6,7-dihydro-2,3,5,6-tetraaza-benzo[cd]azulen-2-yl)-3,4-dihydroxy-4-methyl-tetrahydro-furan-2-ylmethylester] | < 30 min | high | 9060 µg/mL (≈ 21700 µM) | –
4 | CC(C)C(=O)OCOC(=O)NC1=CC(=O)Nc2ncnc3c2c1cn3[C@@H]1O[C@H](CO)[C@@H](O)[C@]1(C)O (stereo in doubt) [Compound 109, Isobutyric acid 2-(3,4-dihydroxy-5-hydroxymethyl-3-methyl-tetrahydro-furan-2-yl)-7-oxo-6,7-dihydro-2H-2,3,5,6-tetraaza-benzo[cd]azulen-9-ylcarbamoyloxymethyl ester] | > 120 min | low | 215 µg/mL (≈ 437 µM) | –
5 | CC(C)C(=O)O[C@@H]1[C@@H](CO)O[C@@H](n2cc3c4c(ncnc42)NC(=O)C=C3N)C1(C)O (stereo in doubt) [Compound 115, Isobutyric acid 5-(9-amino-7-oxo-6,7-dihydro-2,3,5,6-tetraaza-benzo[cd]azulen-2-yl)-4-hydroxy-2-hydroxymethyl-4-methyl-tetrahydro-furan-3-yl ester] | < 30 min | high | 134 µg/mL (≈ 321 µM) | –
6 | CC(=O)OC[C@H]1O[C@@H](n2cc3c4c(ncnc42)NC(=O)C=C3N)C(C)(OC(C)=O)[C@@H]1OC(C)=O (stereo in doubt) [Compound 117, Acetic acid 4-acetoxy-2-acetoxymethyl-5-(9-amino-7-oxo-6,7-dihydro-2,3,5,6-tetraaza-benzo[cd]azulen-2-yl)-4-methyl-tetrahydro-furan-3-yl ester] | – | – | 510 µg/mL (≈ 1080 µM) | > 1 ×10⁻⁶ cm/s
7 | CC(C)C(=O)OC[C@H]1O[C@@H](n2cc3c4c(ncnc42)NC(=O)C=C3N)[C@@](C)(O)[C@@H]1OC(=O)C(C)C (stereo in doubt) [Compound 134, Isobutyric acid 5-(9-amino-7-oxo-6,7-dihydro-2,3,5,6-tetraaza-benzo[cd]azulen-2-yl)-4-hydroxy-3-isobutyryloxy-4-methyl-tetrahydro-furan-2-ylmethyl ester] | < 30 min | low | 67 µg/mL (≈ 137 µM) | –
8 | CC(=O)OC[C@H]1O[C@@H](n2cc3c4c(ncnc42)NC(=O)C=C3N)[C@@](C)(O)[C@@H]1OC(C)=O (stereo in doubt) [Compound 135, Acetic acid 3-acetoxy-5-(9-amino-7-oxo-6,7-dihydro-2,3,5,6-tetraaza-benzo[cd]azulen-2-yl)-4-hydroxy-4-methyl-tetrahydro-furan-2-ylmethylester] | < 15 min | medium | 7280 µg/mL (≈ 16900 µM) | –
9 | CC1(O)C(O)C(CO)OC1n1cc2c3c(ncnc31)NC(=O)C=C2N (stereo not shown) [Compound 100, 9-amino-2-(3,4-dihydroxy-5-hydroxymethyl-3-methyl-tetrahydro-furan-2-yl)-2,6-dihydro-2,3,5,6-tetraaza-benzo[cd]azulen-7-one, reference compound] | < 15 min | low | 11 µg/mL (≈ 31.7 µM) | –
10 | CC(C)C(=O)OC[C@H]1O[C@@H](n2cc3c4c(ncnc42)NC(=O)C=C3N)[C@@]2(C)OC(=O)O[C@H]12 [Compound 106, Isobutyric acid 6-(9-amino-7-oxo-6,7-dihydro-2,3,5,6-tetraaza-benzo[cd]azulen-2-yl)-6a-methyl-2-oxo-tetrahydro-furo[3,4-d][1,3]dioxol-4-ylmethyl ester] | < 30 min | high | 65 µg/mL (≈ 147 µM) | –
11 | CC(=O)OC[C@H]1O[C@@H](n2cc3c4c(ncnc42)NC(=O)C=C3N)[C@@]2(C)OC(=O)O[C@H]12 [Compound 108, Acetic acid 6-(9-amino-7-oxo-6,7-dihydro-2,3,5,6-tetraaza-benzo[cd]azulen-2-yl)-6a-methyl-2-oxo-tetrahydro-furo[3,4-d][1,3]dioxol-4-ylmethyl ester] | < 15 min | medium | 28 µg/mL (≈ 67.4 µM) | –
12 | CCCCCC(=O)O[C@@H]1[C@@H](CO)O[C@@H](n2cc3c4c(ncnc42)NC(=O)C=C3N)[C@]1(C)O [Compound 113, Hexanoic acid 5-(9-amino-7-oxo-6,7-dihydro-2,3,5,6-tetraaza-benzo[cd]azulen-2-yl)-4-hydroxy-2-hydroxymethyl-4-methyl-tetrahydro-furan-3-yl ester] | < 30 min | medium | 67 µg/mL (≈ 150 µM) | –
13 | CC12OC(=O)O[C@@H]1[C@@H](CO)O[C@H]2n1cc2c3c(ncnc31)NC(=O)C=C2N (stereo partly shown) [Compound 116, 9-Amino-2-(6-hydroxymethyl-3a-methyl-2-oxo-tetrahydro-furo[3,4-d][1,3]dioxol-4-yl)-2,6-dihydro-2,3,5,6-tetraaza-benzo[cd]azulen-7-one] | < 30 min | low | 202 µg/mL (≈ 541 µM) | –
14 | CC(=O)N[C@H](C(=O)OC[C@H]1O[C@@H](n2cc3c4c(ncnc42)NC(=O)C=C3N)C(C)(O)[C@@H]1O)C(C)C (stereo partly shown) [Compound 124, 2-Acetylamino-3-methyl-butyric acid5-(9-amino-7-oxo-6,7-dihydro-2,3,5,6-tetraaza-benzo[cd]azulen-2-yl)-3,4-dihydroxy-4-methyl-tetrahydro-furan-2-ylmethyl ester] | < 30 min | low | 6250 µg/mL (≈ 12800 µM) | –
15 | CCCCCOC(=O)NC1=CC(=O)Nc2ncnc3c2c1cn3[C@@H]1O[C@H](CO)[C@@H](O)[C@@]1(C)O [Compound 138, [2-(3,4-Dihydroxy-5-hydroxymethyl-3-methyl-tetrahydro-furan-2-yl)-7-oxo-6,7-dihydro-2H-2,3,5,6-tetraaza-benzo[cd]azulen-9-yl]-carbamic acidpentyl ester] | > 120 min | medium | 32 µg/mL (≈ 69.3 µM) | –
